In PMC10862539, “Chelation of Mitochondrial Iron as an Antiparasitic Strategy” (ACS Infectious Diseases, 2024):
Read-outs that look alike come from different tables or passages of the source.

Legend:
L. mexicana (amastigote) = assay: Drug sensitivity assay, axenic L. mexicana amastigote (flow cytometry); assay type: cell-based, Leishmania mexicana; conditions: for EC50: Leishmania mexicana
Protocol: (§1) All organisms were cultivated according to the conditions summarized in Table S2, which also includes strain specifications. Dose–response curves were obtained by their cultivation on 96 well plates in a 2-fold series dilution of the appropriate drug, in a total volume of 200 μL (with the exception of P. falciparum, where the total volume was 100 μL). Iron supplementation was achieved by mixing the compound with Fe-NTA in an equimolar ratio prior to setting up the experiment. Results were plotted and processed using Prism 8.0 (GraphPad Software). A two-tailed unpaired t-test was performed to assess the significance of the difference between mitoDFO with and without added iron. Selectivity was calculated as the ratio of the average EC50 value for human fibroblasts to the average EC50 value for the appropriate pathogen. All data were obtained from a minimum of three independent biological replicates.

murine macrophage = assay: Intracellular L. mexicana infection assay, macrophage population; assay type: cell-based, mouse; conditions: Mus musculus, Macrophage, read-out: EC50 infection assay murine macrophage
Protocol: Approximately 10 000 murine macrophages per well were seeded on 96 well plate, and a suspension of 60 000 L. mexicana GFP-expressing promastigotes was added to each well and left to infect the mammal cells for 72 h in a cultivation medium under the conditions described in Table S2. 2-fold dilution series starting with 100 μM of either mitoDFO, DFO, or Amphotericin B in a regular growth medium were added, and cultures were incubated for further 72 h in the same conditions. Macrophage cells were washed and resuspended in growth medium and detached by pipetting, and their concentration in each well was measured on a Guava EasyCyte 8HT flow cytometer (Luminex). The GFP signal of internalized L. mexicana amastigotes in each macrophage was detected using a 488 nm excitation laser and a 525/30 nm detector. Median fluorescence graphs were plotted, and EC50 values for both macrophages and intracellular L. mexicana were calculated using Prism 8.0 (GraphPad Software).

L. major (promastigote) = assay: Drug sensitivity assay, L. major promastigote (flow cytometry); assay type: cell-based; conditions: for EC50: Leishmania major, 120 h
Protocol: as §1

C. albicans = assay: Drug sensitivity assay, C. albicans (OD600); assay type: cell-based, Candida albicans; conditions: for EC50: Candida albicans, 48 h
Protocol: as §1

T. brucei STIB (BSF) = assay: Drug sensitivity assay, T. brucei STIB bloodstream form (resazurine); assay type: cell-based, Trypanosoma brucei; conditions: for selectivity (for −Fe): EC50 human fibroblasts / EC50 T. brucei STIB (BSF); for EC50: Trypanosoma brucei, 72 h
Protocol: as §1

[1] = test system: cytosolic pyruvate kinase; assay: Pyruvate kinase activity in cytosolic fraction of treated T. brucei 427; assay type: cell-based, Trypanosoma brucei; conditions: 0.12 μM compound, 24 h
Protocol: T. brucei 427 bloodstream forms were preincubated for 24 h in appropriate conditions (0.12 μM mitoDFO, 0.12 μM DFO, and no addition) and harvested, and cytosolic and mitochondrial fractions were separated by digitonin fractionation as described previously.[46] Briefly, cells were spun down (1200 g, 15 min, 4 °C) and resuspended in SHE buffer (250 mM sucrose, 25 mM HEPES, 1 mM EDTA, pH 7.4), and protein concentration was measured using a BCA kit (Sigma-Aldrich). Subsequently, cells were transferred into HBSS (Sigma-Aldrich) and digitonin (Calbiochem) was added in the protein/digitonin ratio of 1/0.15 for 4 min and spun (21 000 g, 2 min, 4 °C). […] The activities of cytosolic pyruvate kinase and mitochondrial threonine dehydrogenase were assessed in all conditions using the spectrophotometric assay at […], as described in ref ([46]), and served both as markers of successful fraction preparation and to assess the effect of the studied compounds. Briefly, pyruvate kinase was measured in TEA buffer (0.1 M triethanolamine, 5 mM MgSO4, 50 mM KCl, pH 7.6) with added 2.8 mM phosphoenolpyruvate, 2 mM ADP, 0.3 mM NADH, and lactate dehydrogenase. Threonine dehydrogenase was measured in 0.2 M Tris–HCl buffer, pH 8.6, 0.25 KCl with 120 mM threonine, and 2.5 mM NAD^+. Fumarase was measured at […] in 2 mM Tris–HCl buffer, pH 7.5, with 20 mM malate.

[2] = test system: Trypanosoma brucei 427 bloodstream forms; assay: T. brucei growth curves and doubling time (flow cytometry); assay type: cell-based; conditions: for Average doubling time: calculated between 24 and 48 h
Protocol: Bloodstream T. brucei 427 cells were inoculated to a concentration of […] and incubated with the addition of mitoDFO (0.025 and 0.1 μM) or DFO (2.5 and 10 μM) in aerobic flasks in a total volume of 5 mL in 5% CO2 at 37 °C. Control with no compound was used to obtain reference values. At time points 24, 36, 48, and 72 h, a 20 μL sample was collected, diluted in growth medium, and measured on a Guava EasyCyte 8HT flow cytometer (Luminex) to assess concentration in previously experimentally prepared settings. The culture was simultaneously observed by light microscopy to confirm the cell viability. The growth curve was plotted by using Prism 8.0 (GraphPad Software). All conditions were measured in three biologically independent replicates. Doubling time was calculated between 24 and 48 h time points using the online calculator,[45] and each of the conditions was compared to the untreated culture using a two-tailed unpaired t-test.

iron-containing fumarase = assay: Fumarase activity in cytosolic and mitochondrial fractions of treated T. brucei 427; assay type: cell-based, Trypanosoma brucei; conditions: 0.12 μM compound, 24 h; for reduction of cytosolic fumarase activity: cytosolic fraction; for reduction of mitochondrial fumarase activity: mitochondrial fraction
Protocol: T. brucei 427 bloodstream forms were preincubated for 24 h in appropriate conditions (0.12 μM mitoDFO, 0.12 μM DFO, and no addition) and harvested, and cytosolic and mitochondrial fractions were separated by digitonin fractionation as described previously.[46] Briefly, cells were spun down (1200 g, 15 min, 4 °C) and resuspended in SHE buffer (250 mM sucrose, 25 mM HEPES, 1 mM EDTA, pH 7.4), and protein concentration was measured using a BCA kit (Sigma-Aldrich). Subsequently, cells were transferred into HBSS (Sigma-Aldrich) and digitonin (Calbiochem) was added in the protein/digitonin ratio of 1/0.15 for 4 min and spun (21 000 g, 2 min, 4 °C). The supernatant was collected and placed on ice as a cytosolic fraction. The remaining pellet was lysed using 0.1% Triton X-100 in HBSS for 5 min, resuspended, washed in HBSS twice, and used as a mitochondrial fraction. The activities of cytosolic pyruvate kinase and mitochondrial threonine dehydrogenase were assessed in all conditions using the spectrophotometric assay at […], as described in ref ([46]), and served both as markers of successful fraction preparation and to assess the effect of the studied compounds. Briefly, pyruvate kinase was measured in TEA buffer (0.1 M triethanolamine, 5 mM MgSO4, 50 mM KCl, pH 7.6) with added 2.8 mM phosphoenolpyruvate, 2 mM ADP, 0.3 mM NADH, and lactate dehydrogenase. Threonine dehydrogenase was measured in 0.2 M Tris–HCl buffer, pH 8.6, 0.25 KCl with 120 mM threonine, and 2.5 mM NAD^+. Fumarase was measured at […] in 2 mM Tris–HCl buffer, pH 7.5, with 20 mM malate.

P. falciparum = assay: Drug sensitivity assay, P. falciparum (SYBR green I); assay type: cell-based, Plasmodium falciparum; conditions: for selectivity (for −Fe): EC50 human fibroblasts / EC50 P. falciparum; for EC50: Plasmodium falciparum
Protocol: as §1

Candida albicans = assay: C. albicans hyphae formation (phase contrast microscopy); assay type: cell-based; conditions: 3.6 and 7.2 μM mitoDFO for 24 h
Protocol: The yeast form of C. albicans was seeded in the 2 mL RPMI medium on a 24 well plate with a glass bottom and treated with MitoDFO in concentrations of 0, 3.6, and 7.2 μM. The culture was incubated at 35 °C for 24 h, and microscopic images were taken using phase contrast on an inverted microscope Eclipse TI-S (Nikon).

Human fibroblast BJ1 = test system: Human fibroblast BJ1; set-up: method as in C. Sandoval-Acuña et al.[25]; conditions: ref C. Sandoval-Acuña et al.[25], read-out: control EC50; cited from earlier work
[3] = axenic monoculture, read-out: EC50 axenic Leishmania mexicana
[4] = iron-free compound, L. mexicana (amastigote), 120 h, read-out: EC50 –Fe
[5] = pre-treated with equimolar iron, L. mexicana (amastigote), 120 h, read-out: EC50 +Fe
[6] = approximately half the EC50 concentration of the compound

## CC(=O)N(O)CCCCCNC(=O)CCC(=O)N(O)CCCCCNC(=O)CCC(=O)N(O)CCCCCN [DFO, Deferoxamine, reference compound]
L. mexicana (amastigote); [3]
  EC50: > 25 µM
L. mexicana (amastigote); [4]
  EC50: > 25 µM
L. mexicana (amastigote); [5]
  EC50: > 25 µM
Murine macrophage; infected macrophages, 72 h treatment
  EC50: 45.3 ± 3.09 µM
L. major (promastigote); iron-free compound, L. major (promastigote), read-out: EC50 –Fe
  EC50: > 25 µM
L. major (promastigote); pre-treated with equimolar iron, L. major (promastigote), read-out: EC50 +Fe
  EC50: > 25 µM
C. albicans; iron-free compound, C. albicans, read-out: EC50 –Fe
  EC50: > 100 µM
C. albicans; pre-treated with equimolar iron, C. albicans, read-out: EC50 +Fe
  EC50: > 100 µM
T. brucei STIB (BSF)
  selectivity (for −Fe): >38
T. brucei STIB (BSF); iron-free compound, T. brucei STIB (BSF), read-out: EC50 –Fe
  EC50: 2.61 ± 0.753 µM
T. brucei STIB (BSF); pre-treated with equimolar iron, T. brucei STIB (BSF), read-out: EC50 +Fe
  EC50: 14.5 ± 1.18 µM
[1]
  pyruvate kinase activity: no difference in activity
[2]; 2.5 μM DFO
  Average doubling time: 8.28 h
[2]; 10 μM DFO
  Average doubling time: 14.17 h
[2]; [6]
  cell proliferation (growth curve): slows down cell proliferation
iron-containing fumarase
  reduction of cytosolic fumarase activity: no significant effect
  reduction of mitochondrial fumarase activity: no significant effect
P. falciparum
  selectivity (for −Fe): >8
P. falciparum; iron-free compound, P. falciparum, 48 h, read-out: EC50 –Fe
  EC50: 12.7 ± 0.6 µM
P. falciparum; pre-treated with equimolar iron, P. falciparum, 48 h, read-out: EC50 +Fe
  EC50: > 50 µM

## CC(=O)N(O)CCCCCNC(=O)CCC(=O)N(O)CCCCCNC(=O)CCC(=O)N(O)CCCCCN(CCCCCCCCCC[P+](c1ccccc1)(c1ccccc1)c1ccccc1)CCCCCCCCCC[P+](c1ccccc1)(c1ccccc1)c1ccccc1 [mitoDFO]
L. mexicana (amastigote); EC50 human fibroblasts / EC50 L. mexicana (amastigote)
  selectivity (for −Fe): 6
L. mexicana (amastigote); L. mexicana (amastigote)
  DFO/mitoDFO ratio (−Fe): >15.6
  mitoDFO EC50 ratio + Fe/–Fe: 1.5
L. mexicana (amastigote); [3]
  EC50: 1.56 ± 0.5 µM
L. mexicana (amastigote); [4]
  EC50: 1.6 ± 0.5 µM
L. mexicana (amastigote); [5]
  EC50: 2.4 ± 0.5 µM
Murine macrophage; 72 h
  EC50: 4.67 ± 1.18 µM
L. major (promastigote); EC50 human fibroblasts / EC50 L. major (promastigote)
  selectivity (for −Fe): 5
L. major (promastigote); L. major (promastigote)
  DFO/mitoDFO ratio (−Fe): >13.2
  mitoDFO EC50 ratio + Fe/–Fe: 4.8
L. major (promastigote); read-out: EC50 –Fe
  EC50: 1.9 ± 0.6 µM
Candida albicans
  hyphal growth of Candida albicans culture: absence of hyphal growth
C. albicans; C. albicans
  DFO/mitoDFO ratio (−Fe): >27.8
  mitoDFO EC50 ratio + Fe/–Fe: 2.6
C. albicans; read-out: EC50 –Fe
  EC50: 3.6 ± 1.7 µM
C. albicans; EC50 human fibroblasts / EC50 C. albicans
  selectivity (for −Fe): 2
T. brucei STIB (BSF)
  selectivity (for −Fe): 28
T. brucei STIB (BSF); T. brucei STIB (BSF)
  DFO/mitoDFO ratio (−Fe): 8.1
T. brucei STIB (BSF); read-out: EC50 –Fe
  EC50: 0.32 ± 0.067 µM
[1]
  pyruvate kinase activity: no difference in activity
[2]; 0.025 μM mitoDFO
  Average doubling time: 8.07 h
[2]; [6]
  cell proliferation (growth curve): does not affect cell proliferation
[2]; twice the EC50 concentration
  cell proliferation (growth curve): stops its growth
iron-containing fumarase
  reduction of cytosolic fumarase activity: approximately 3 fold
  reduction of mitochondrial fumarase activity: approximately 3 fold
Human fibroblast BJ1
  EC50: 7.9 ± 3.9 µM
P. falciparum
  selectivity (for −Fe): 27
  EC50: 0.334 ± 0.01 µM
P. falciparum; P. falciparum
  DFO/mitoDFO ratio (−Fe): 38.0
  mitoDFO EC50 ratio + Fe/–Fe: 1.4
P. falciparum; 48 h, read-out: EC50 –Fe
  EC50: 0.33 ± 0.01 µM
